Consider one compound from patent US10334852B2, “Pyrido-1,3-oxazine-2,4-dione compounds with fungicidal activity” (Dow AgroSciences LLC, priority 2016, dated 2019).

One assay deals with Zymoseptoria tritici. The assay can be described thus: Leaf blotch of wheat (SEPTTR) disease control on wheat seedlings. It counts as in vivo, Zymoseptoria tritici on wheat plants (variety Yuma). To be noted: LV activity at 121.5 g/H. The method, then: (§1) Technical grades of materials were dissolved in acetone, which were then mixed with nine volumes of water (H2O) containing 110 ppm Triton X-100. The fungicide solutions were applied onto wheat seedlings using an automated booth sprayer to run-off. All sprayed plants were allowed to air dry prior to further handling. All fungicides were evaluated using the aforementioned method for their activity vs. all target diseases, unless stated otherwise. Wheat leaf blotch and brown rust activity were also evaluated using track spray applications, in which case the fungicides were formulated as EC formulations, containing 0.1% Trycol 5941 in the spray solutions. Wheat plants (variety Yuma) were grown from seed in a greenhouse in 50% mineral soil/50% soil-less Metro mix until the first leaf was fully emerged, with 7-10 seedlings per pot. These plants were inoculated with an aqueous spore suspension of Zymoseptoria tritici either prior to or after fungicide treatments. […] When disease symptoms were fully expressed on the 1st leaves of untreated plants, infection levels were assessed on a scale of 0 to 100 percent disease severity. Percent disease control was calculated using the ratio of disease severity on treated plants relative to untreated plants.

A further assay concerns Puccinia triticina. The assay can be described thus: Wheat brown rust (PUCCRT) disease control on wheat seedlings. To be noted: LV activity at 121.5 g/H. It counts as in vivo, Puccinia triticina on wheat plants (variety Yuma). The method, then:
as §1, with “plants. […]” for “plants.”

Read-outs that look alike come from different tables or passages of the source.

Take `CCc1cc(OC)ccc1C(c1ccc(OC)cc1OC)[C@H](C)OC(=O)[C@H](C)n1c(=O)oc2c(OC)ccnc2c1=O` (stereo partly shown) [Compound 8]: the pest or weed control at 121.5 g/ha with Zymoseptoria tritici (24 h, 1 Day Protectant, read-out: SEPTTR 1DP disease control rating) was more than 80%; in the assay on Zymoseptoria tritici (72 h, 3 Day Curative, read-out: SEPTTR 3DC disease control rating), more than 80%; in the assay on Puccinia triticina (24 h, 1 Day Protectant, read-out: PUCCRT 1DP disease control rating), not above 80%; in the assay with Puccinia triticina (72 h, 3 Day Curative, read-out: PUCCRT 3DC disease control rating), not above 80%.
